Assay results taken from ChEMBL document CHEMBL5518190, “Advancements in dual-target inhibitors of PI3K for tumor therapy: Clinical progress, development strategies, prospects” (Eur J Med Chem, 2024).
Values after ≈ are worked out from the molar mass of the structure shown. Blank lines part the entries; values can stand above or below the molecule they belong to.

Tests used:
Histone deacetylase 8 [1] = target: T1, Histone deacetylase 8 (Homo sapiens, UniProt Q9BY41); assay: Inhibition of HDAC8 (unknown origin) using Fluoro-Substrate Peptide as substrate by fluorescence assay
T1 sequence (Q9BY41 whole entry): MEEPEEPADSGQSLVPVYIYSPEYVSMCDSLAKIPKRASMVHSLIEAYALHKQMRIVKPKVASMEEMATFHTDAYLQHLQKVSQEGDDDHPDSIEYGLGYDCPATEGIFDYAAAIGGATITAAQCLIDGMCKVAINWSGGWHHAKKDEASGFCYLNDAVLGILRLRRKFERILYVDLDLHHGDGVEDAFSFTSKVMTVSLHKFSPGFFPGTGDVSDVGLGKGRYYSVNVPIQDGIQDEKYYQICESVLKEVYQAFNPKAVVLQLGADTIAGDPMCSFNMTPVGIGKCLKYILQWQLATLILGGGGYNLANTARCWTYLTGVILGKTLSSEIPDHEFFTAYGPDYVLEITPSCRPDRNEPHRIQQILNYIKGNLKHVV

[2] = target: T2, Phosphatidylinositol 4,5-bisphosphate 3-kinase catalytic subunit alpha isoform (Homo sapiens, UniProt P42336)
[3] = target: T3, Phosphatidylinositol 4,5-bisphosphate 3-kinase catalytic subunit gamma isoform (Homo sapiens, UniProt P48736)
Histone deacetylase 8 [4] = target: T1, Histone deacetylase 8; assay: Inhibition of HDAC8 (unknown origin) by fluorescence based assay
[5] = target: Serine/threonine-protein kinase mTOR (Homo sapiens, UniProt P42345)
Histone deacetylase 1 = Histone deacetylase 1 (Homo sapiens, UniProt Q13547); assay: Inhibition of HDAC1 (unknown origin) by fluorescence based assay
[6] = target: T2, Phosphatidylinositol 4,5-bisphosphate 3-kinase catalytic subunit alpha isoform; assay: Inhibition of full length wild type PI3Kalpha (unknown origin)
[7] = Cytotoxicity against human SK-ES cells assessed as reduction in cell viability incubated for 48 hrs by CellTiter-Blue reagent based […] assay; assay type: functional
[8] = Antiproliferative activity against human A2780cis cells assessed as inhibition of cell growth incubated for 72 hrs by cell-titer glo assay; assay type: functional, cell-based
B16 = assay: Antiproliferative activity against mouse B16 cells assessed as reduction in cell viability measured for 48 hrs by MTT assay; assay type: functional, cell-based; settings: B16, 48 h
[9] = target: T2, Phosphatidylinositol 4,5-bisphosphate 3-kinase catalytic subunit alpha isoform; assay: Inhibition of PI3Kalpha (unknown origin) using PIP2 as substrate preincubated for 15 mins followed by substrate addition and measured after 1 hr by HTRF assay
[10] = target: T3, Phosphatidylinositol 4,5-bisphosphate 3-kinase catalytic subunit gamma isoform; assay: Inhibition of PI3Kgamma (unknown origin) using […] as substrate preincubated for 15 mins followed by substrate addition and measured after 1 hr by HTRF assay
[11] = target: T4, Phosphatidylinositol 4,5-bisphosphate 3-kinase catalytic subunit beta isoform (Homo sapiens, UniProt P42338); assay: Inhibition of PI3Kbeta (unknown origin) using […] as substrate preincubated for 15 mins followed by substrate addition and measured after 1 hr by HTRF assay
[12] = target: T5, Phosphatidylinositol 4,5-bisphosphate 3-kinase catalytic subunit delta isoform (Homo sapiens, UniProt O00329); assay: Inhibition of PI3Kdelta (unknown origin) using PIP2 as substrate preincubated for 15 mins followed by substrate addition and measured after 1 hr by HTRF assay
T5 sequence (O00329 whole entry): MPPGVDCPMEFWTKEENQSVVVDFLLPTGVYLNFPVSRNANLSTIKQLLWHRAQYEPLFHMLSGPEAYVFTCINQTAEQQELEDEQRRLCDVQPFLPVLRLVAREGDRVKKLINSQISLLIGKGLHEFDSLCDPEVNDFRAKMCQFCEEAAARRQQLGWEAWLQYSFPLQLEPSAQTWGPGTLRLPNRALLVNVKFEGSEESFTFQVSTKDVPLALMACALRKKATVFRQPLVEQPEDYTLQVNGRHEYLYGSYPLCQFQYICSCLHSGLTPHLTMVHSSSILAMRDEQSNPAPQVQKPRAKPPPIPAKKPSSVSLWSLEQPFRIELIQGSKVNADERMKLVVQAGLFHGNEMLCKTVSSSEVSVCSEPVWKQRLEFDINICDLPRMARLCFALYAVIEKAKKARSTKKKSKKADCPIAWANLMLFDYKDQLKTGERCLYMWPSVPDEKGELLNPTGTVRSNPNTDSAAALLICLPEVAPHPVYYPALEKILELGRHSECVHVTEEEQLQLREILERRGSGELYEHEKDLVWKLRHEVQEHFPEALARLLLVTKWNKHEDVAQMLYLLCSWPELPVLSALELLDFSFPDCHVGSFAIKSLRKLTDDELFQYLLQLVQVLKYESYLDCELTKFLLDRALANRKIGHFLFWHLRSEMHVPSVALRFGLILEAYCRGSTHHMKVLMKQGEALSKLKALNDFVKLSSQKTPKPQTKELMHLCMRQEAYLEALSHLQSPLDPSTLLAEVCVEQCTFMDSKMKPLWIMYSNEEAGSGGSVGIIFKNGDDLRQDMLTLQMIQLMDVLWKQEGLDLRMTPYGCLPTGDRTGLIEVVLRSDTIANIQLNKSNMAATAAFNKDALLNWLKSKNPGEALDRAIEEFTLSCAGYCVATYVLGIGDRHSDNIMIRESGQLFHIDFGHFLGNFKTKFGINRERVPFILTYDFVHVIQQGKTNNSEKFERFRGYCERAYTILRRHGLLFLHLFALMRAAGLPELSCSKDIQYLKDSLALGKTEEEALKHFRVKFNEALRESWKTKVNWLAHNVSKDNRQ

[13] = target: Epidermal growth factor receptor (Homo sapiens, UniProt P00533); assay: Inhibition of EGFR (unknown origin)
[14] = target: T4, Phosphatidylinositol 4,5-bisphosphate 3-kinase catalytic subunit beta isoform; assay: Inhibition of human recombinant PI3Kbeta
A-375 = assay: Antiproliferative activity against human A-375 cells assessed as reduction in cell viability measured after 48 hrs by MTT assay; assay type: functional, cell-based; settings: A-375, 48 h
[15] = target: T2, Phosphatidylinositol 4,5-bisphosphate 3-kinase catalytic subunit alpha isoform; assay: Inhibition of PI3Kalpha (unknown origin) at 1 uM by kinase-glo luminescent assay relative to control
[16] = target: Mitogen-activated protein kinase 1 (Homo sapiens) (UniProt P28482); assay: Inhibition of ERK2 (unknown origin) at 1 uM relative to control by ADP-Glo assay
Mitogen-activated protein kinase 1 (Homo sapiens), sequence (P28482 whole entry): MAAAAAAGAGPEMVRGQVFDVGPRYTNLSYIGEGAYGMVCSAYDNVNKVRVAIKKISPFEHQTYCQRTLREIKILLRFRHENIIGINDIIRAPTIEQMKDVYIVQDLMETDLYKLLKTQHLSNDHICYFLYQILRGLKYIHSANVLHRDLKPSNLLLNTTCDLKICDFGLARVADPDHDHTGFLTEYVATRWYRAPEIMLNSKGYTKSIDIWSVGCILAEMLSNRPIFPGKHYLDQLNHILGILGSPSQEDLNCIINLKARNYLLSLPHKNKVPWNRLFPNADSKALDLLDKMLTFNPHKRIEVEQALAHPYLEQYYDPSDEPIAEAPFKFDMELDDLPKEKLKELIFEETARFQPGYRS

T2 sequence (P42336 whole entry, canonical isoform): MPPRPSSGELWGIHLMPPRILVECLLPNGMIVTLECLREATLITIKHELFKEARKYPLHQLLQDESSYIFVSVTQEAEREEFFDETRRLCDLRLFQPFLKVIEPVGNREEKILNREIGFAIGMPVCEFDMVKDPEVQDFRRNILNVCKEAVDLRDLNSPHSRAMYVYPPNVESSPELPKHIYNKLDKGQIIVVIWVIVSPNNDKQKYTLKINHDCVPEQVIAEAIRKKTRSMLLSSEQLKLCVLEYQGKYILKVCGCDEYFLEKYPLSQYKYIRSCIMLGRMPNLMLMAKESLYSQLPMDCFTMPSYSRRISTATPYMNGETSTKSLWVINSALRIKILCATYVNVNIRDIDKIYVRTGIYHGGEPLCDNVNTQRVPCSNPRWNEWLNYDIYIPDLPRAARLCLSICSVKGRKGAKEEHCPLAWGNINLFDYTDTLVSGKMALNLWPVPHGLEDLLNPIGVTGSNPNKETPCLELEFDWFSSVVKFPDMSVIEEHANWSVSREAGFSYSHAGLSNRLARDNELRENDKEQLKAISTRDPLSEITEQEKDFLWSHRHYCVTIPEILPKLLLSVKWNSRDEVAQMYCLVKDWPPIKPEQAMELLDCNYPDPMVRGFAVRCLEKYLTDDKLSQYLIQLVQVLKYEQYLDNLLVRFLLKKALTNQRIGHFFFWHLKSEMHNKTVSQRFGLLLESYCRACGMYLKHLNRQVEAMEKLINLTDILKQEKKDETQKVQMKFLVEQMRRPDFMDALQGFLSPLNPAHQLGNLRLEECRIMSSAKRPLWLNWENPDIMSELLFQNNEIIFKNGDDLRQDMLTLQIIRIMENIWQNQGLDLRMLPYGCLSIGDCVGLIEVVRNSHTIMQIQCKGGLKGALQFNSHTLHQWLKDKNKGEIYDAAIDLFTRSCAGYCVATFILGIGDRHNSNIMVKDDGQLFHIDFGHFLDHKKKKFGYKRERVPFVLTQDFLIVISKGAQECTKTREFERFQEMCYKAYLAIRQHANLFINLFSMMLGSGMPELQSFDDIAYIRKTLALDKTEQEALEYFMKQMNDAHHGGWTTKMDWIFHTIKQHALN
T4 sequence (P42338 whole entry, canonical isoform): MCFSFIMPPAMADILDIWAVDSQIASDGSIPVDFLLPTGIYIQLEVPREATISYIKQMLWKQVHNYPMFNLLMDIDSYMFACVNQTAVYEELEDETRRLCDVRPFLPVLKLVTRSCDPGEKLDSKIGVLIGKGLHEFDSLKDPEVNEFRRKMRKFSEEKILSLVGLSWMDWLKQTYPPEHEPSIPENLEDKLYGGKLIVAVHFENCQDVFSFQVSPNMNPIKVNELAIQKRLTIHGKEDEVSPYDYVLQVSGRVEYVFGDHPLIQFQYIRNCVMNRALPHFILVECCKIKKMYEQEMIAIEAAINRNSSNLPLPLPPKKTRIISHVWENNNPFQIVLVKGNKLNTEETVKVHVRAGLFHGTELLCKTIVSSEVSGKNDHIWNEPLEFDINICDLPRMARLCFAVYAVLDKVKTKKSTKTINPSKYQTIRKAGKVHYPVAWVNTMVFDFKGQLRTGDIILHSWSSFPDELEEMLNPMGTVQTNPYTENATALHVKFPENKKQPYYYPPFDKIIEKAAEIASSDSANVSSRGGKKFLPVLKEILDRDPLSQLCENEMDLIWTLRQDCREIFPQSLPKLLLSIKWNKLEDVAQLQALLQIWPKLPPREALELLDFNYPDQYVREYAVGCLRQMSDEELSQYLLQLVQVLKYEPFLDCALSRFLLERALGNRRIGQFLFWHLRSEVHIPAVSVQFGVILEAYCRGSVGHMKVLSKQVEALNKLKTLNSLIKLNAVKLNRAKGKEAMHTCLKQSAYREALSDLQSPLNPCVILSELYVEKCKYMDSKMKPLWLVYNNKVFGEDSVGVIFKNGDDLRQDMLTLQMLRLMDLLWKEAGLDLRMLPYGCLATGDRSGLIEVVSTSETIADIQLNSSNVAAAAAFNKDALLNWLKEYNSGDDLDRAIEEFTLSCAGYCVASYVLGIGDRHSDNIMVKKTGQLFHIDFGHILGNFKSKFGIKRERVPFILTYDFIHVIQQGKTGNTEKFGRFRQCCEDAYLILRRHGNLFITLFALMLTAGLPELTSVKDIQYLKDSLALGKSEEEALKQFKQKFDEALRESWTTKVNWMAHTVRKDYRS
T3 sequence (P48736 whole entry, canonical isoform): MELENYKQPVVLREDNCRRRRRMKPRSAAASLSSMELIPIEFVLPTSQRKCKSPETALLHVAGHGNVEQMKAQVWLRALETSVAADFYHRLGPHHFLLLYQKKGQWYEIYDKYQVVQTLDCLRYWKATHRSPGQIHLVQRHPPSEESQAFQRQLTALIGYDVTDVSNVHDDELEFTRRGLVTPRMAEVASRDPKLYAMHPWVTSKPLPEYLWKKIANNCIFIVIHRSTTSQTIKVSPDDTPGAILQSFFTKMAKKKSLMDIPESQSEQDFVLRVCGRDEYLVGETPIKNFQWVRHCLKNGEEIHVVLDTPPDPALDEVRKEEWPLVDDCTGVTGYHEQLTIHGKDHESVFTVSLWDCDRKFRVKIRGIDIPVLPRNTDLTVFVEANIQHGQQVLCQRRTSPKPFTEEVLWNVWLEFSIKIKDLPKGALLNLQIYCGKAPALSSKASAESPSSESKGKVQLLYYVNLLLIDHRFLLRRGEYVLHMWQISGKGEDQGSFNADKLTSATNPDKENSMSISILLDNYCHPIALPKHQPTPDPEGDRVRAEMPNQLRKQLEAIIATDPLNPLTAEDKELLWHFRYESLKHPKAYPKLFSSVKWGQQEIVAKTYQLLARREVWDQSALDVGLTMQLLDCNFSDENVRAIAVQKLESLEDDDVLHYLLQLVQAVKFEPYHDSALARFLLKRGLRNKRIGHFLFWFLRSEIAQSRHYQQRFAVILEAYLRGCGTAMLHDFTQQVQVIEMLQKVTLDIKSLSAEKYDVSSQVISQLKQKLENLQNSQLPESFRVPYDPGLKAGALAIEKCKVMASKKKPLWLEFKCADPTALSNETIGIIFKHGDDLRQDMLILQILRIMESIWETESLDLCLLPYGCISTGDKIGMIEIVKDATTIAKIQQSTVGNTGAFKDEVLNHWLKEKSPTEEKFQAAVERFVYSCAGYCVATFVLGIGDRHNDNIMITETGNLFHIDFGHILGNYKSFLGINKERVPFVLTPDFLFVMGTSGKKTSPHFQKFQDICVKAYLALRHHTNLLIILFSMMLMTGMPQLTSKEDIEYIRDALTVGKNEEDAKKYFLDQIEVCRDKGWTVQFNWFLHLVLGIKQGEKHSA
Epidermal growth factor receptor, sequence (P00533 whole entry, canonical isoform): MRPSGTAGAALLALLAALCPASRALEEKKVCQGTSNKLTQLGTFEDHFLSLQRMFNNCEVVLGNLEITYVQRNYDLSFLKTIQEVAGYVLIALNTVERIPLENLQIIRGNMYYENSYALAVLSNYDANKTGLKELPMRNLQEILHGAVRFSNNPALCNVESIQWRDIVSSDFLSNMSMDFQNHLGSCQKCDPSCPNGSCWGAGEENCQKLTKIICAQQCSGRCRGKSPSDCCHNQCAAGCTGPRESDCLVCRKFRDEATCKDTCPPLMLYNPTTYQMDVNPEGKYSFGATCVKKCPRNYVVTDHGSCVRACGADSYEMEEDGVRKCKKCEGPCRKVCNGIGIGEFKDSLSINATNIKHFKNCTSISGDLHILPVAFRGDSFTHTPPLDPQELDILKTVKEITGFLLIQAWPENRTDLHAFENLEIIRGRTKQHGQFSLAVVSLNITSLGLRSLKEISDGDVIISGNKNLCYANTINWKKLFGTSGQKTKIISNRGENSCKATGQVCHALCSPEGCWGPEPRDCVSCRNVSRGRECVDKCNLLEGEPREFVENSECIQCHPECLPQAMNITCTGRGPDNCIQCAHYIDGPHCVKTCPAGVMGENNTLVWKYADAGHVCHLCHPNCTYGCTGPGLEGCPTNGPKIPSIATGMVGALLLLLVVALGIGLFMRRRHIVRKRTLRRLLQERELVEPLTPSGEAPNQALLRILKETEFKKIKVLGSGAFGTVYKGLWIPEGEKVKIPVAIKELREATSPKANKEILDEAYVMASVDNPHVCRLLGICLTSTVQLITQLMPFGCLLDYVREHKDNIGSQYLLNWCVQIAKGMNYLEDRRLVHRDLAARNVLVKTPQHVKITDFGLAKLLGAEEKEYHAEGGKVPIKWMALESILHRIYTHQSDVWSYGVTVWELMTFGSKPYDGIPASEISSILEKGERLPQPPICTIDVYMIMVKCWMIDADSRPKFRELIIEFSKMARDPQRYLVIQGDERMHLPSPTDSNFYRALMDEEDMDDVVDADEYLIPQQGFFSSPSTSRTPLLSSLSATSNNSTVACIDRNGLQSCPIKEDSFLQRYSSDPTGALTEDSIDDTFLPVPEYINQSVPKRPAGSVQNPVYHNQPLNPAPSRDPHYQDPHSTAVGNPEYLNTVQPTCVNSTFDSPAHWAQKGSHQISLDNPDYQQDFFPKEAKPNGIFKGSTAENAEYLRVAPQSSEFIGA

Structure (SMILES): CC(C)[C@H]1NC(=O)C[C@H]2/C=C/CCSSC[C@@H](NC1=O)C(=O)N[C@H](Cc1ccccc1)C(=O)NCC(=O)O2
IC50 (Histone deacetylase 1): 0.0025 µM
IC50 [6]: 27.3 µM

Structure (SMILES): CC(C)OC(=O)N1CCC(Nc2ncnc3ccc(-c4cnc(Cl)c(NS(=O)(=O)c5ccc(F)cc5F)c4)nc23)CC1
IC50 [7]: 0.0995 µM
IC50 [8]: 0.213 µM

Structure (SMILES): CC(C)c1cc(C(=O)N2CCc3c(sc4ncnc(N5CCOCC5)c34)C2)c(O)cc1O
IC50 (B16): 0.47 µg/mL (≈ 1.03 µM)

Structure (SMILES): CC(C)c1cc(C(=O)N2CCc3c(sc4nc(-c5cccnc5)nc(N5CCOCC5)c34)C2)c(O)cc1O
IC50 (A-375): 2.29 µg/mL (≈ 4.31 µM)

The remaining lines, values ahead:

IC50 (Histone deacetylase 8 [1]): 0.153 µM
IC50 [2]: 0.00298 µM
IC50 [3]: 0.025 µM
Structure (SMILES): COc1c(OCCCCCC(=O)NO)ccc2c1N=C(NC(=O)c1ccccc1)N1CCN=C21

IC50 (Histone deacetylase 8 [4]): 0.0665 µM
Structure (SMILES): O=C(NO)c1ccc(/C=N/NC(=O)c2cc(N3CCOCC3)nc(-c3cccc4[nH]ncc34)n2)cc1

IC50 [5]: 0.15 µM
Structure (SMILES): CCn1c(=O)c(-c2cc[nH]n2)cc2c(C)nc(N)nc21 [VOXTALISIB]

IC50 [9]: 10.5 µM
IC50 [10]: 30 µM
IC50 [11]: 32.7 µM
IC50 [12]: 7.47 µM
IC50 [13]: 114 µM
Structure (SMILES): CCOC(=O)c1nn(-c2ccccc2)c(=O)c2c(N)c(C#N)c(-c3cccs3)cc12

IC50 [14]: 0.005 µM
Structure (SMILES): O=C(Nc1ncc2ncc(-c3cn[nH]c3)cc2n1)NC1CCCC1

inhibition [15]: 4%
inhibition [16]: 79.5%
Structure (SMILES): Cn1cc(-c2n[nH]c3nc(NC(=O)NC4CCCC4)ncc23)cn1
